Consider 26 molecules from patent US20230365592A1 (Agios Pharmaceuticals, Inc., priority 2022, published 2023).

Structures are written as SMILES. A value given as a limit tells only on which side of the number the result lay.

The assay concerns the target T1, human PAH with the R408W mutation (Homo sapiens, UniProt P00439, R408W).
T1 construct: expressed in transfected cells
T1 sequence (P00439 1-452 R408W): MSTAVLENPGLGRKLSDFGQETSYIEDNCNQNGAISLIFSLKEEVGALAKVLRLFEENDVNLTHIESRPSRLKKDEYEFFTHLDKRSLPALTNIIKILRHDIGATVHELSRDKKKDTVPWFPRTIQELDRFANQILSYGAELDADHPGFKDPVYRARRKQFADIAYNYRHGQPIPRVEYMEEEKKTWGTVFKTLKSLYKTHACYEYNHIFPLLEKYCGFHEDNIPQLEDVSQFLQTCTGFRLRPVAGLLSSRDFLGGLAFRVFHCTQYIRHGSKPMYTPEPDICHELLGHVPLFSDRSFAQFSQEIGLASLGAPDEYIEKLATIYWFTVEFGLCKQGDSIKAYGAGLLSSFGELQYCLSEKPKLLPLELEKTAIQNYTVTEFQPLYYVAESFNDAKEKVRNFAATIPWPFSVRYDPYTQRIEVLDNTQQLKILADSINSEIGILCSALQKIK
Nature of the assay: Cell Based Phenylalanine Flux Assay.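 Further: after compound treatment, cells received sepiapterin plus isotope-labelled Phenylalanine for 4 hours, then labelled Tyrosine in the medium was quantified, 10-point 2-fold dilution series run in duplicate.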 The conditions noted are these: A375 cells expressing human R408W PAH; 24 hrs compound incubation; 13C-Tyrosine by LC-MS; average where tested multiple times; read-out: AC50.

One may read the AC50 as the concentration at which the activity in the assay is half-maximal. On to `O=C(c1nnc(-c2ccn(C(F)F)n2)o1)N1CCc2[nH]cnc2[C@H]1c1cc2ccccn2n1` [Example 666, (S)-(5-(1-(difluoromethyl)-1H-pyrazol-3-yl)-1,3,4-oxadiazol-2-yl)(4-(pyrazolo[1,5-a]pyridin-2-yl)-6,7-dihydro-1H-imidazo[4,5-c]pyridin-5(4H)-yl)methanone], for which the half-maximal activity concentration (AC50) was 500 to 1000 nM.

Turning to `O=C(c1nnc(-c2ccn(C(F)F)n2)o1)N1CCc2[nH]cnc2[C@@H]1c1cc2ccccn2n1` [Example 667, (R)-(5-(1-(difluoromethyl)-1H-pyrazol-3-yl)-1,3,4-oxadiazol-2-yl)(4-(pyrazolo[1,5-a]pyridin-2-yl)-6,7-dihydro-1H-imidazo[4,5-c)pyridin-5(4H)-yl)methanone], the AC50 is > 5000 nM.

Take `O=C(c1nnc(-c2cc(C(F)(F)F)ccn2)o1)N1CCc2[nH]cnc2[C@@H]1c1cc2ccccn2n1` [Example 668, (R)-(4-(pyrazolo[1,5-a]pyridin-2-yl)-6,7-dihydro-1H-imidazo[4,5-c]pyridin-5(4H)-yl)(5-(4-(trifluoromethyl)pyridin-2-yl)-1,3,4-oxadiazol-2-yl)methanone]: the half-maximal activity concentration (AC50) was > 5000 nM.

In the case of `O=C(c1nnc(-c2cc(C(F)(F)F)ccn2)o1)N1CCc2[nH]cnc2[C@H]1c1cc2ccccn2n1` [Example 669, (S)-(4-(pyrazolo[1,5-a]pyridin-2-yl)-6,7-dihydro-1H-imidazo[4,5-c]pyridin-5(4H)-yl)(5-(4-(trifluoromethyl)pyridin-2-yl)-1,3,4-oxadiazol-2-yl)methanone], the AC50 was < 500 nM.

As for `CC(C)(O)c1nc(C(F)F)c(C(=O)N2CCc3[nH]cnc3[C@H]2c2cc3ccccn3n2)o1` [Example 670, (S)-(4-(difluoromethyl)-2-(2-hydroxypropan-2-yl)oxazol-5-yl)(4-(pyrazolo[1,5-a]pyridin-2-yl)-6,7-dihydro-1H-imidazo[4,5-c]pyridin-5(4H)-yl)methanone], the AC50 was < 500 nM.

`CC(C)(O)c1nc(C(F)F)c(C(=O)N2CCc3[nH]cnc3[C@@H]2c2cc3ccccn3n2)o1` [Example 671, (R)-(4-(difluoromethyl)-2-(2-hydroxypropan-2-yl)oxazol-5-yl)(4-(pyrazolo[1,5-a]pyridin-2-yl)-6,7-dihydro-1H-imidazo[4,5-c]pyridin-5(4H)-yl)methanone]: the AC50 is > 5000 nM.

On to `Cc1ccc(-c2nnc(C(=O)N3CCc4[nH]cnc4[C@@H]3c3cc4ccccn4n3)o2)nc1` [Example 672, (R)-(5-(5-methylpyridin-2-yl)-1,3,4-oxadiazol-2-yl)(4-(pyrazolo[1,5-a]pyridin-2-yl)-6,7-dihydro-1H-imidazo[4,5-c]pyridin-5(4H)-yl)methanone], for which the AC50 is > 5000 nM.

Consider `Cc1ccc(-c2nnc(C(=O)N3CCc4[nH]cnc4[C@H]3c3cc4ccccn4n3)o2)nc1` [Example 673, (S)-(5-(5-methylpyridin-2-yl)-1,3,4-oxadiazol-2-yl)(4-(pyrazolo[1,5-a]pyridin-2-yl)-6,7-dihydro-1H-imidazo[4,5-c]pyridin-5(4H)-yl)methanone], for which the AC50 is 500 to 1000 nM.

Consider `O=C(c1cn(-c2ccccn2)nc1Cl)N1CCc2[nH]cnc2[C@H]1c1cc2ccccn2n1` [Example 674, (S)-(3-chloro-1-(pyridin-2-yl)-1H-pyrazol-4-yl)(4-(pyrazolo[1,5-a]pyridin-2-yl)-6,7-dihydro-1H-imidazo[4,5-c]pyridin-5(4H)-yl)methanone], for which the AC50 lay in the range of 1000 to 5000 nM.

`O=C(c1cn(-c2ccccn2)nc1Cl)N1CCc2[nH]cnc2[C@@H]1c1cc2ccccn2n1` [Example 675, (R)-(3-chloro-1-(pyridin-2-yl)-1H-pyrazol-4-yl)(4-(pyrazolo[1,5-a]pyridin-2-yl)-6,7-dihydro-1H-imidazo[4,5-c]pyridin-5(4H)-yl)methanone]: the AC50 is > 5000 nM.

As to `CC(C)(O)c1nc(Br)c(C(=O)N2CCc3[nH]cnc3[C@H]2c2cc3ccccn3n2)o1` [Example 676, (S)-(4-bromo-2-(2-hydroxypropan-2-yl)oxazol-5-yl)(4-(pyrazolo[1,5-a]pyridin-2-yl)-6,7-dihydro-1H-imidazo[4,5-c]pyridin-5(4H)-yl)methanone], the AC50 was < 500 nM.

On to `CC(C)(O)c1nc(Br)c(C(=O)N2CCc3[nH]cnc3[C@@H]2c2cc3ccccn3n2)o1` [Example 677, (R)-(4-bromo-2-(2-hydroxypropan-2-yl)oxazol-5-yl)(4-(pyrazolo[1,5-a]pyridin-2-yl)-6,7-dihydro-1H-imidazo[4,5-c]pyridin-5(4H)-yl)methanone], for which the AC50 was > 5000 nM.

With `Cn1cc(-c2nnc(C(=O)N3CCc4[nH]cnc4[C@H]3c3cc4ccccn4n3)o2)c(C(F)(F)F)n1` [Example 678, (S)-(5-(1-methyl-3-(trifluoromethyl)-1H-pyrazol-4-yl)-1,3,4-oxadiazol-2-yl)(4-(pyrazolo[1,5-a]pyridin-2-yl)-6,7-dihydro-1H-imidazo[4,5-c]pyridin-5(4H)-yl)methanone], the AC50 was in the range of 1000 to 5000 nM.

For the molecule `Cn1cc(-c2nnc(C(=O)N3CCc4[nH]cnc4[C@@H]3c3cc4ccccn4n3)o2)c(C(F)(F)F)n1` [Example 679, (R)-(5-(1-methyl-3-(trifluoromethyl)-1H-pyrazol-4-yl)-1,3,4-oxadiazol-2-yl)(4-(pyrazolo[1,5-a]pyridin-2-yl)-6,7-dihydro-1H-imidazo[4,5-c]pyridin-5(4H)-yl)methanone], the AC50 is > 5000 nM.

On to `Cn1nc(Cl)cc1C(=O)N1CCc2[nH]cnc2[C@H]1c1cc2ccccn2n1` [Example 680, (S)-(3-chloro-1-methyl-1H-pyrazol-5-yl)(4-(pyrazolo[1,5-a]pyridin-2-yl)-6,7-dihydro-1H-imidazo[4,5-c]pyridin-5(4H)-yl)methanone], for which the AC50 is < 500 nM.

`N#Cc1ncoc1C(=O)N1CCc2[nH]cnc2[C@H]1c1cc2ccc(Br)cn2n1` [Example 682, (S)-5-(4-(6-bromopyrazolo[1,5-a]pyridin-2-yl)-4,5,6,7-tetrahydro-1H-imidazo[4,5-c]pyridine-5-carbonyl)oxazole-4-carbonitrile]: the AC50 lay in the range of 500 to 1000 nM.

Consider `N#Cc1ncoc1C(=O)N1CCc2[nH]cnc2[C@@H]1c1cc2ccc(Br)cn2n1` [Example 683, (R)-5-(4-(6-bromopyrazolo[1,5-a]pyridin-2-yl)-4,5,6,7-tetrahydro-1H-imidazo[4,5-c]pyridine-5-carbonyl)oxazole-4-carbonitrile], for which the AC50 was > 5000 nM.

As for `N#Cc1ncoc1C(=O)N1CCc2[nH]cnc2[C@H]1c1cc2ccc(Cl)cn2n1` [Example 684, (S)-5-(4-(6-chloropyrazolo[1,5-a]pyridin-2-yl)-4,5,6,7-tetrahydro-1H-imidazo[4,5-c]pyridine-5-carbonyl)oxazole-4-carbonitrile], the AC50 lay in the range of 500 to 1000 nM.

With `N#Cc1ncoc1C(=O)N1CCc2[nH]cnc2[C@H]1c1cc2c(Cl)cccn2n1` [Example 686, (S)-5-(4-(4-chloropyrazolo[1,5-a]pyridin-2-yl)-4,5,6,7-tetrahydro-1H-imidazo[4,5-c]pyridine-5-carbonyl)oxazole-4-carbonitrile], the AC50 was < 500 nM.

In the case of `N#Cc1ncoc1C(=O)N1CCc2[nH]cnc2[C@@H]1c1cc2c(Cl)cccn2n1` [Example 687, (R)-5-(4-(4-chloropyrazolo[1,5-a]pyridin-2-yl)-4,5,6,7-tetrahydro-1H-imidazo[4,5-c]pyridine-5-carbonyl)oxazole-4-carbonitrile], the AC50 fell in the range of 1000 to 5000 nM.

On to `Cn1cc(-c2nnc(C(=O)N3CCc4[nH]cnc4[C@H]3c3cc4c(Cl)cccn4n3)o2)cn1` [Example 688, (S)-(4-(4-chloropyrazolo[1,5-a]pyridin-2-yl)-6,7-dihydro-1H-imidazo[4,5-c]pyridin-5(4H)-yl)(5-(1-methyl-1H-pyrazol-4-yl)-1,3,4-oxadiazol-2-yl)methanone], for which the AC50 is < 500 nM.

As for `Cn1cc(-c2nnc(C(=O)N3CCc4[nH]cnc4[C@@H]3c3cc4c(Cl)cccn4n3)o2)cn1` [Example 689, (R)-(4-(4-chloropyrazolo[1,5-a]pyridin-2-yl)-6,7-dihydro-1H-imidazo[4,5-c]pyridin-5(4H)-yl)(5-(1-methyl-1H-pyrazol-4-yl)-1,3,4-oxadiazol-2-yl)methanone], the AC50 was > 5000 nM.

As for `C[C@@H](O)c1nc(C(F)F)c(C(=O)N2CCc3[nH]cnc3[C@H]2c2cc3ccccn3n2)o1` [Example 690, (4-(difluoromethyl)-2-((R)-1-hydroxyethyl)oxazol-5-yl)((S)-4-(pyrazolo[1,5-a]pyridin-2-yl)-6,7-dihydro-1H-imidazo[4,5-c]pyridin-5(4H)-yl)methanone], the AC50 was < 500 nM.

As to `C[C@H](O)c1nc(C(F)F)c(C(=O)N2CCc3[nH]cnc3[C@H]2c2cc3ccccn3n2)o1` [Example 692, (4-(difluoromethyl)-2-((S)-1-hydroxyethyl)oxazol-5-yl)((S)-4-(pyrazolo[1,5-a]pyridin-2-yl)-6,7-dihydro-1H-imidazo[4,5-c]pyridin-5(4H)-yl)methanone], the AC50 was < 500 nM.

For `C[C@H](O)c1nc(C(F)F)c(C(=O)N2CCc3[nH]cnc3[C@@H]2c2cc3ccccn3n2)o1` [Example 693, (4-(difluoromethyl)-2-((S)-1-hydroxyethyl)oxazol-5-yl)((R)-4-(pyrazolo[1,5-a]pyridin-2-yl)-6,7-dihydro-1H-imidazo[4,5-c]pyridin-5(4H)-yl)methanone], the AC50 was > 5000 nM.

On to `Cn1nc(Cl)nc1C(=O)N1CCc2[nH]cnc2[C@H]1c1cc2ccccn2n1` [Example 694, (S)-(3-chloro-1-methyl-1H-1,2,4-triazol-5-yl)(4-(pyrazolo[1,5-a]pyridin-2-yl)-6,7-dihydro-1H-imidazo[4,5-c]pyridin-5(4H)-yl)methanone], for which the AC50 was < 500 nM.
